Reference: patent US20040242572A1 (Boehringer Ingelheim International GmbH, priority 2002, published 2004)

Target: T1, hMCH-1R (Homo sapiens, UniProt Q99705)
T1 construct: expressed in transfected cells; host or cells: CHO/Galpha16 cells, stably transfected; membrane preparation
Experiment: MCH-1 receptor binding test (125I-MCH binding to membranes of hMCH-1R transfected CHO/Galpha16 cells)
Settings: 100 pM 125I-MCH, membranes of CHO/Galpha16 cells with hMCH-1R
Method: Membranes from CHO/Galpha16 cells stably transfected with human hMCH-1R are resuspended using a syringe (needle 0.6×25 mm) and diluted in test buffer (50 mM HEPES, 10 mM MgCl2, 2 mM EGTA, pH 7.00; 0.1% bovine serum albumin (protease-free), 0.021% bacitracin, 1 μg/ml aprotinin, 1 μg/ml leupeptin and 1 μM phosphoramidone) to a concentration of 5 to 15 μg/ml. […] After the incubation the reaction is filtered using a cell harvester through 0.5% PEI treated glass fibre filters (GF/B, Unifilter Packard). The membrane-bound radioactivity retained on the filter is then determined after the addition of scintillator substance (Packard Microscint 20) in a measuring device (TopCount of Packard).
The non-specific binding is defined as bound radioactivity in the presence of 1 micromolar MCH during the incubation period.
The analysis of the concentration binding curve is carried out on the assumption of one receptor binding site.

T1 sequence (Q99705 whole entry): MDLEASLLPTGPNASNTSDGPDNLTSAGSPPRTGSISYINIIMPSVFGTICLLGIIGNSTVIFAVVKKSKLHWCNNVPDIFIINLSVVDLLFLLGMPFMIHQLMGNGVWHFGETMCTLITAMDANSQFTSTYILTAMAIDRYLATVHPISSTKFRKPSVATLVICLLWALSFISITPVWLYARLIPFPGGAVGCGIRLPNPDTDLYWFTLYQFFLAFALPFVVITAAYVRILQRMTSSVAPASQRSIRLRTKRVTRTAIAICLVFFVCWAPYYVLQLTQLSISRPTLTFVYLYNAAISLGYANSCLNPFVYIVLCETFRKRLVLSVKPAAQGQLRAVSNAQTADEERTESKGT

IC50 [nM] | SMILES
30.5 | Cc1ccc(C2CCN(C(=O)NCCc3ccc(CN4CCCC4)cc3)CC2)cc1 [Example 2.12, 4-methylphenyl-piperidine-1-carboxylic acid-[2-(4-pyrrolidin-1-ylmethyl-phenyl)-ethyl]-amide]
2.1 | CN(C)Cc1ccc(CCn2cnc3cc(-c4ccc(Cl)cc4)ccc3c2=O)cc1 [Example 1.14, 7-(4-chloro-phenyl)-3-[2-(4-dimethylaminomethyl-phenyl)-ethyl]-3H-quinazolin-4-one]
3.5 | CCN(CC)Cc1ccc(CCNC(=O)c2ccc(-c3ccc(OC)cc3)cc2)cc1 [Example 2.4, 4′-methoxy-biphenyl-4-carboxylic acid-[2-(4-diethylaminomethyl-phenyl)-ethyl]-amide]

Tested on: not given
Experiment: not given
Settings: not given

melting point [°C] | SMILES
143 to 144 | COc1ccc(-c2ccc3c(=O)n(CCc4ccc(CN5CCCC5)cc4)cnc3c2)cc1 [Example 1.4, 7-(4-Methoxy-phenyl)-3-[2-(4-pyrrolidin-1-ylmethyl-phenyl)-ethyl]-3H-quinazolin-4-one]
169 to 170 | O=c1c2ccc(-c3ccc(Cl)cc3)cc2ncn1CCc1ccc(CN2CCOCC2)cc1 [Example 1.16, 7-(4-chloro-phenyl)-3-[2-(4-morpholin-4-ylmethyl-phenyl)-ethyl]-3H-quinazolin-4-one]
147 to 148 | O=c1c2ccc(-c3ccc(Cl)cc3)cc2nnn1Cc1ccc(CN2CCCC2)cc1 [Example 1.19, 7-(4-chloro-phenyl)-3-(4-pyrrolidin-1-ylmethyl-benzyl)-3H-benzo[d][1,2,3]triazin-4-one]
133 to 135 | COC[C@@H]1CCCN1Cc1ccc(CCn2cnc3cc(-c4ccc(Cl)cc4)ccc3c2=O)cc1 [Example 1.13, 7-(4-chloro-phenyl)-3-{2-[4-((S)-2-methoxymethyl-pyrrolidin-1-ylmethyl)-phenyl]-ethyl}-3H-quinazolin-4-one]
274 to 276 | O=c1[nH]c2cc(-c3ccc(Cl)cc3)ccc2c(=O)n1CCc1ccc(CN2CCCC2)cc1 [Example 1.12, 7-(4-chloro-phenyl)-3-[2-(4-pyrrolidin-1-ylmethyl-phenyl)-ethyl]-1H-quinazolin-2,4-dione]
211 to 213 | CN1CCN(c2ccc(CCNC(=O)c3ccc(-c4ccc(Cl)cc4)cc3)cn2)CC1 [Example 2.50, 4′-chloro-biphenyl-4-carboxylic acid-{2-[6-(4-methyl-piperazin-1-yl)-pyridin-3-yl]-ethyl}-amide]
165 to 166 | O=c1c2ccc(-c3ccc(Cl)cc3)cc2nnn1CCc1ccc(CN2CCC3(CCCCC3)CC2)cc1 [Example 1.30, 7-(4-chloro-phenyl)-3-{2-[4-(3-aza-spiro[5.5]undec-3-ylmethyl)-phenyl]-ethyl}-3H-benzo[d][1,2,3]triazin-4-one]
160 to 163 | Cc1nc2cc(-c3ccc(Cl)cc3)ccc2c(=O)n1CCc1ccc(CN2CCCC2)cc1 [Example 1.11, 7-(4-chloro-phenyl)-2-methyl-3-[2-(4-pyrrolidin-1-ylmethyl-phenyl)-ethyl]-3H-quinazolin-4-one]
148 to 149 | O=c1c2ccc(-c3ccc(Cl)c(Cl)c3)cc2ncn1CCc1ccc(CN2CCCC2)cc1 [Example 1.5, 7-(3,4-dichloro-phenyl)-3-[2-(4-pyrrolidin-1-ylmethyl-phenyl)-ethyl]-3H-quinazolin-4-one]
217 to 218 | CN1CCN(C(=O)c2ccc(CCNC(=O)c3ccc(-c4ccc(Cl)cc4)cc3)cc2)CC1 [Example 2.51, 4′-chloro-biphenyl-4-carboxylic acid-{2-[4-(4-methyl-piperazine-1-carbonyl)-phenyl]-ethyl}-amide]
154 to 158 | O=c1c2ccc(-c3ccc(Cl)cc3)cc2ncn1CCc1ccc(CN2CCC(Oc3ccccn3)CC2)cc1 [Example 1.26, 7-(4-chloro-phenyl)-3-(2-{4-[4-(pyridin-2-yloxy)-piperidin-1-ylmethyl]-phenyl}-ethyl)-3H-quinazolin-4-one]
263 to 264 | CN1CCN(c2ccc(CCn3cnc4cc(-c5ccc(Cl)cc5)ccc4c3=O)cn2)CC1 [Example 1.17, 7-(4-chloro-phenyl)-3-{2-[6-(4-methyl-piperazin-1-yl)-pyridin-3-yl]-ethyl}-3H-quinazolin-4-one]
151 to 152 | O=c1c2ccc(-c3ccc(Cl)cc3)cc2nnn1CCc1ccc(CN2CCCC2)cc1 [Example 1.18, 7-(4-chloro-phenyl)-3-[2-(4-pyrrolidin-1-ylmethyl-phenyl)-ethyl]-3H-benzo[d][1,2,3]triazin-4-one]
165 to 166 | CCc1ccc(-c2ccc3c(=O)n(CCc4ccc(CN5CCCC5)cc4)cnc3c2)cc1 [Example 1.8, 7-(4-Ethyl-phenyl)-3-[2-(4-pyrrolidin-1-ylmethyl-phenyl)-ethyl]-3H-quinazolin-4-one]
265 to 266 | O=c1c2ccc(-c3ccc(Cl)cc3)cc2nnn1CCc1ccc(CN2CCC(O)(c3ccccc3)CC2)cc1
199 to 200 | O=c1c2ccc(-c3ccc(Cl)cc3)cc2ncn1CCc1ccc(CN2CCN(c3ccccc3)CC2)cc1 [Example 1.22, 7-(4-chloro-phenyl)-3-{2-[4-(4-phenyl-piperazin-1-ylmethyl)-phenyl]-ethyl}-3H-quinazolin-4-one]
157 to 158 | Cc1ccc(-c2ccc3c(=O)n(CCc4ccc(CN5CCCC5)cc4)cnc3c2)cc1 [Example 1.2, 3-[2-(4-Pyrrolidin-1-ylmethyl-phenyl)-ethyl]-7-p-tolyl-3H-quinazolin-4-one]
160 to 161 | O=c1c2ccc(-c3ccc(F)cc3)cc2ncn1CCc1ccc(CN2CCCC2)cc1 [Example 1.7, 7-(4-fluoro-phenyl)-3-[2-(4-pyrrolidin-1-ylmethyl-phenyl)-ethyl]-3H-quinazolin-4-one]
183 to 184 | O=c1c2ccc(-c3ccc(Cl)cc3)cc2nnn1CCc1ccc(CN2CCC(c3ccccc3)CC2)cc1 [Example 1.28, 7-(4-chloro-phenyl)-3-{2-[4-(4-phenyl-piperidin-1-ylmethyl)-phenyl]-ethyl}-3H-benzo[d][1,2,3]triazin-4-one]
164 to 166 | O=c1c2ccc(-c3ccc(Cl)cc3)cc2ncn1CCc1ccc(CN2CCC(Nc3ccccn3)CC2)cc1 [Example 1.27, 7-(4-chloro-phenyl)-3-(2-{4-[4-(pyridin-2-ylamino)-piperidin-1-ylmethyl]-phenyl}-ethyl)-3H-quinazolin-4-one]
183 | CN(C)Cc1ccc(CCn2cnc3cc(-c4ccc(Cl)cc4)ccc3c2=O)cc1 [Example 1.14, 7-(4-chloro-phenyl)-3-[2-(4-dimethylaminomethyl-phenyl)-ethyl]-3H-quinazolin-4-one]
178 to 179 | O=c1c2ccc(-c3ccc(Cl)cc3)cc2ncn1CCc1ccc(CN2CCCC2)cc1 [Example 1.1, 7-(4-chloro-phenyl)-3-[2-(4-pyrrolidin-1-ylmethyl-phenyl)-ethyl]-3H-quinazolin-4-one]
178 to 179 | O=c1c2ccc(-c3ccc(Cl)cc3)cc2ncn1CCc1ccc(CN2CCC(c3ccccc3)CC2)cc1 [Example 1.21, 7-(4-chloro-phenyl)-3-{2-[4-(4-phenyl-piperidin-1-ylmethyl)-phenyl]-ethyl}-3H-quinazolin-4-one]
136 to 137 | O=c1c2ccc(-c3ccc(Cl)cc3)cc2ccn1CCc1ccc(CN2CCCC2)cc1 [Example 1.31, 6-(4-chloro-phenyl)-2-[2-(4-pyrrolidin-1-ylmethyl-phenyl)-ethyl]-2H-isoquinolin-1-one]
166 to 167 | O=c1c2ccc(-c3ccc(Cl)cc3)cc2ncn1CCc1ccc(CN2CC=C(c3ccccc3)CC2)cc1 [Example 1.24, 7-(4-chloro-phenyl)-3-{2-[4-(4-phenyl-3.6-dihydro-2H-piperidin-1-ylmethyl)-phenyl]-ethyl}-3H-quinazolin-4-one]
204 to 205 | O=c1c2ccc(-c3ccc(Cl)cc3)cc2ncn1CCc1ccc(CN2CCC(O)(c3ccccc3)CC2)cc1
184 to 185 | O=c1c2ccc(-c3ccc(Cl)cc3)cc2ncn1CCc1ccc(CN2CCC3(CCCCC3)CC2)cc1 [Example 1.25, 7-(4-chloro-phenyl)-3-{2-[4-(3-Aza-spiro[5.5]undec-3-ylmethyl)-phenyl]-ethyl}-3H-quinazolin-4-one]
169 to 170 | O=c1c2ccc(-c3ccc(Cl)cc3)cc2ncn1CCc1ccc(CN2CCCCC2)cc1 [Example 1.15, 7-(4-chloro-phenyl)-3-[2-(4-piperidin-1-ylmethyl-phenyl)-ethyl]-3H-quinazolin-4-one]
179 to 181 | O=c1c2ccc(-c3ccc(C(F)(F)F)cc3)cc2ncn1CCc1ccc(CN2CCCC2)cc1 [Example 1.3, 3-[2-(4-pyrrolidin-1-ylmethyl-phenyl)-ethyl]-7-(4-trifluormethyl-phenyl)-3H-quinazolin-4-one]
